± gives the standard deviation of the averaged measurements.
What was measured:
Details in all cases: 72 h
Caco-2 [1] = experiment: cell viability relative to DMSO; higher = less toxic
Calu-3 [2] = experiment: as above
HepG2 [3] = experiment: as above
U2OS [4] = experiment: as above
Vero E6 [5] = experiment: as above
Caco-2 [6] = experiment: relative viability EC50 (midpoint between 100% and the lowest measured viability); higher = less toxic
Calu-3 [7] = experiment: as above
HepG2 [8] = experiment: as above
U2OS [9] = experiment: as above
Vero E6 [10] = experiment: as above
Caco-2 [11] = experiment: drug sensitivity score (DSS) for viability; higher = more toxic; extreme values may be limits of the assay
Calu-3 [12] = experiment: as above
HepG2 [13] = experiment: as above
U2OS [14] = experiment: as above
Vero E6 [15] = experiment: as above

SMILES | cell viability (Caco-2 [1]; 1 nM) | cell viability (Caco-2 [1]; 10 nM) | cell viability (Caco-2 [1]; 100 nM) | cell viability (Caco-2 [1]; 1000 nM) | cell viability (Caco-2 [1]; 10000 nM) | cell viability (Calu-3 [2]; 1 nM) | cell viability (Calu-3 [2]; 10 nM) | cell viability (Calu-3 [2]; 100 nM) | cell viability (Calu-3 [2]; 1000 nM) | cell viability (Calu-3 [2]; 10000 nM) | cell viability (HepG2 [3]; 1 nM) | cell viability (HepG2 [3]; 10 nM) | cell viability (HepG2 [3]; 100 nM) | cell viability (HepG2 [3]; 1000 nM) | cell viability (HepG2 [3]; 10000 nM) | cell viability (U2OS [4]; 1 nM) | cell viability (U2OS [4]; 10 nM) | cell viability (U2OS [4]; 100 nM) | cell viability (U2OS [4]; 1000 nM) | cell viability (U2OS [4]; 10000 nM) | cell viability (Vero E6 [5]; 1 nM) | cell viability (Vero E6 [5]; 10 nM) | cell viability (Vero E6 [5]; 100 nM) | cell viability (Vero E6 [5]; 1000 nM) | cell viability (Vero E6 [5]; 10000 nM) | relative viability EC50 (Caco-2 [6]) | relative viability EC50 (Calu-3 [7]) | relative viability EC50 (HepG2 [8]) | relative viability EC50 (U2OS [9]) | relative viability EC50 (Vero E6 [10]) | drug sensitivity score (Caco-2 [11]) | drug sensitivity score (Calu-3 [12]) | drug sensitivity score (HepG2 [13]) | drug sensitivity score (U2OS [14]) | drug sensitivity score (Vero E6 [15])
C[C@H](Nc1ncnc2[nH]cnc12)c1cc2ccc(F)cc2nc1-c1ccccn1 [AMG319] | 100 ± 4.2% | 104 ± 6.4% | 98.5 ± 1.3% | 93.4 ± 5.8% | 95 ± 13% | 103 ± 0.64% | 97.2 ± 1.3% | 108 ± 8.1% | 100 ± 13% | 96.5 ± 2.5% | 103 ± 2.3% | 96.5 ± 11% | 115 ± 5% | 97.8 ± 6.2% | 99.3 ± 5.4% | 99% | 101% | 98.3% | 102% | 101% | 98.8 ± 3.9% | 97.8 ± 0.85% | 98.5 ± 1.2% | 92.2 ± 2.3% | 83.7 ± 4.1% | > 10 µM | > 10 µM | > 10 µM | > 10 µM | > 10 µM | 0.2 ± 0.28 | 0 | 0 | 0 | 0.75 ± 0.35
CCN(CC)CCCCC1CCN(CC(=O)N2c3ccccc3C(=O)Nc3cccnc32)CC1 [AQ-RA741] | 101% | 90.9% | 98.2% | 86.4% | 97.1% | 105% | 94.7% | 108% | 109% | 96.4% | 100% | 102% | 102% | 101% | 90.1% | 97.1% | 96.3% | 105% | 98.6% | 104% | 102% | 106% | 96.7% | 97.8% | 95.9% | > 10 µM | > 10 µM | > 10 µM | > 10 µM | > 10 µM | 0 | 0 | 0 | 0 | 0
COc1ccc2cc(C(C)C(=O)Oc3ccc(C(N)=S)cc3)ccc2c1 (stereo not given) [ATB-346] | 90% | 102% | 93.7% | 89.6% | 98.6% | 100% | 102% | 98.8% | 102% | 101% | 98.2% | 88.4% | 97.2% | 98.7% | 97.7% | 99.7% | 100% | 99.1% | 99.9% | 96.9% | 100% | 94.3% | 95.7% | 94.4% | 97.6% | > 10 µM | > 10 µM | > 10 µM | > 10 µM | > 10 µM | 0 | 0 | 0 | 0 | 0
Cc1c(-c2ccnn2C)cc(C(=O)NCc2ccc(S(C)(=O)=O)cn2)c(=O)n1-c1cccc(C(F)(F)F)c1 [AZD9668] | 93.9% | 101% | 106% | 96.9% | 101% | 94.5% | 103% | 99.9% | 92.9% | 97.1% | 101% | 102% | 98% | 108% | 103% | 97% | 93.6% | 102% | 95.7% | 102% | 97.3% | 102% | 89.7% | 92.2% | 107% | > 10 µM | > 10 µM | > 10 µM | > 10 µM | > 10 µM | 0 | 0 | 0 | 0 | 0
